Test results reported in US20260355161A1, “NOVEL HETEROCYCLYL-PHENYL-METHYLAMINE DERIVATIVES, PREPARATION METHOD THEREOF, AND USE THEREOF IN PREVENTING, ALLEVIATING, OR TREATING MULTIPLE SCLEROSIS” (Cureverse Incorporated, priority 2022, published 2026).

Experiments:
S1P5 = conditions: background art; cited from earlier work
S1P3 receptor = conditions: background art; cited from earlier work
[1] = background art; cited from earlier work
S1P1 [2] = target: T1, S1P1 (Homo sapiens, UniProt P21453); conditions: background art; cited from earlier work
S1P1 [3] = target: T1, S1P1; test: β-arrestin recruitment after S1P1 receptor activation, S1P1 overexpressing cell line (luminescence); conditions: based on the two EC50 values of Table 1

T1 sequence (P21453 whole entry): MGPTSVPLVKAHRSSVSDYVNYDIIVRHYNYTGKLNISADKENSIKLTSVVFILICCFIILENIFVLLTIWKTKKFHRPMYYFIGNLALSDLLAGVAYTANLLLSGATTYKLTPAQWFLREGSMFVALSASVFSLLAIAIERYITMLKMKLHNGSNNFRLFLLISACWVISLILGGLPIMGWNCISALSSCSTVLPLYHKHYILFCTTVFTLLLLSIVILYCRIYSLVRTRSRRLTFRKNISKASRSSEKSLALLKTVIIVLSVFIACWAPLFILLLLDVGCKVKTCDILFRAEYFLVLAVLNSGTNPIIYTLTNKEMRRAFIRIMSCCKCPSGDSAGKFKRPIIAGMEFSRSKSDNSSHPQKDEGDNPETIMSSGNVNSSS

| SMILES | activity against S1P5 (S1P5) | activation of S1P3 (S1P3 receptor) | bradycardia side effect [1] | activity against S1P1 (S1P1 [2]) | S1P1 activity (overall, in words) (S1P1 [3]) |
| --- | --- | --- | --- | --- | --- |
| CCc1cc(/C(C)=N/OCc2ccc(C3CCCCC3)c(C(F)(F)F)c2)ccc1CN1CC(C(=O)O)C1 [BAF312] | excellent activity | without activating S1P3 | bradycardia, a side effect of FTY720, still occurred | excellent activity | – |
| CC(C)Oc1ccc(-c2ncc(-c3ccc(CN4CC(C(=O)[O-])C4)cc3)[se]2)cc1Cl.[Na+] [Compound 13, Sodium 1-(4-(2-(3-chloro-4-isopropoxyphenyl)-1,3-selenazole-5-yl)benzyl)azetidine-3-carboxylate] | – | – | – | – | excellent activity |
| CCCCCCCCc1ccc(CCC(N)(CO)CO)cc1 [fingolimod] | – | activation of the S1P3 receptor | causes bradycardia | – | – |
